Test results reported in article PMC5418947 (The Open Medicinal Chemistry Journal, 2017).
Like-named read-outs stand apart in the source and are kept apart here.

Legend:
[1] = DPPH free radical scavenging; format: physicochemical; conditions: read-out: DPPH IC50; 0.1 mM DPPH in methanol, 30 min, room temperature, 517 nm
[2] = molecular target: eqBuChE (from equine serum) (Equus caballus, UniProt P81908); test: biochemical; format: biochemical
[3] = molecular target: TcAChE (from electric eel) (Electrophorus electricus, UniProt O42275); test: Cholinesterase assay; format: biochemical
Sequence of TcAChE (from electric eel) (O42275 24-633): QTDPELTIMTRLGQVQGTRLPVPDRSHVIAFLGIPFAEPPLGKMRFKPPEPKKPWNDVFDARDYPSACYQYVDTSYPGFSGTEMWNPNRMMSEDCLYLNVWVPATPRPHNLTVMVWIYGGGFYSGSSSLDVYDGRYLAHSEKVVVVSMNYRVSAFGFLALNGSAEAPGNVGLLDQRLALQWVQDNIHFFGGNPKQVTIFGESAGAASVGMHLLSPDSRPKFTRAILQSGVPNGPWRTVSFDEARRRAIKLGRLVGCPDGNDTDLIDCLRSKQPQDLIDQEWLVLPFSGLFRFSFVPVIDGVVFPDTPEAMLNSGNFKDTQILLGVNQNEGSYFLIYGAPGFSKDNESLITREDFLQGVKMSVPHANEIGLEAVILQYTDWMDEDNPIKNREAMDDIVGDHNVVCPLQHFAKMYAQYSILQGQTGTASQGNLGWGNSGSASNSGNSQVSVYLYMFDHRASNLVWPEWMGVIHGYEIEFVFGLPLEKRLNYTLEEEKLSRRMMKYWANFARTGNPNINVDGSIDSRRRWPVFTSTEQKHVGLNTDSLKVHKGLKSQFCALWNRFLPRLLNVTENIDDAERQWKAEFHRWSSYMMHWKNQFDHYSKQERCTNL

Sequence of eqBuChE (from equine serum) (P81908 whole entry): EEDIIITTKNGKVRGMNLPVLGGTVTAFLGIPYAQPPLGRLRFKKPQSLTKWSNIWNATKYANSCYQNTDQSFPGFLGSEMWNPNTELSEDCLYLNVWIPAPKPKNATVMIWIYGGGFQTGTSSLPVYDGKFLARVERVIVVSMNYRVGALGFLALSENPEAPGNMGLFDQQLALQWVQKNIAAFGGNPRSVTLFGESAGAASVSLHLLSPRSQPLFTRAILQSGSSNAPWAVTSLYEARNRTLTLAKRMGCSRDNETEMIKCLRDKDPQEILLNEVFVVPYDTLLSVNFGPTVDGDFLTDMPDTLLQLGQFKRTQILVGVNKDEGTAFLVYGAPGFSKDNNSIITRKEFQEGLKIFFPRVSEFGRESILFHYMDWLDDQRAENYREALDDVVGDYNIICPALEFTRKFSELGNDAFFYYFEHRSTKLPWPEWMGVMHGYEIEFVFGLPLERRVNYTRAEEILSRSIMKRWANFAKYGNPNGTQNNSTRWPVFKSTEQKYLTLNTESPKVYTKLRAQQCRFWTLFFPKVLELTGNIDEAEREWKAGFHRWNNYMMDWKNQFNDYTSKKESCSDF

In the case of `Cc1c(C)c2c(c(C)c1O)CCC(C)(C(=O)O)O2` (stereo not drawn) [Trolox, reference compound], the IC50 [1] is reported as 17.6 µM.

For `c1ccc2c3c([nH]c2c1)CN(CCN1CCc2c([nH]c4ccccc24)C1)CC3` [Compound 16, 1,2-Bis(3,4-dihydro-1H-pyrido[3,4-b]indol-2(9H)-yl)ethane], the IC50 [1] was 126 µM, the IC50 [2] was 1700 nM and the “BuChE selectivity index (SI) = IC50(TcAChE)/IC50(eqBuChE)” value (“BuChE selectivity index” for short) ([2]; ratio of IC50 values) was >58.88. For the same molecule, the IC50 [3] was > 100000 nM and the “AChE inhibitory activity (in words)” value ([3]; Ellman's method) was “no inhibitory activity”.

For `Cc1c(C)c2c(c(C)c1O)CCC(C)(C(=O)NCCCCNc1c3c(nc4ccccc14)CCCC3)O2` (stereo not drawn) [Compound 8c, 6-Hydroxy-2,5,7,8-tetramethyl-N-{4-[(1,2,3,4-tetrahydroacridin-9-yl)amino]butyl}-3,4-dihydro-2H-1-benzopyran-2-carboxamide], the IC50 [1] was 14.4 µM, the “BuChE selectivity index” value [2] was 196.07 and the IC50 [2] was 11.2 nM. The IC50 [3] was 2200 nM.

For `Cc1c(C)c2c(c(C)c1O)CCC(C)(C(=O)NCCCNc1c3c(nc4ccccc14)CCCC3)O2` (stereo not drawn) [Compound 8b, 6-Hydroxy-2,5,7,8-tetramethyl-N-{3-[(1,2,3,4-tetrahydroacridin-9-yl)amino]propyl}-3,4-dihydro-2H-1-benzopyran-2-carboxamide], the IC50 [1] was 11.5 µM, the IC50 [2] was 12.6 nM and the “BuChE selectivity index” value ([2]; ratio of IC50 values) was 121.62. It also gave an IC50 [3] of 1530 nM.

In the case of `Cc1c(C)c2c(c(C)c1O)CCC(C)(C(=O)NCCCCCCNc1c3c(nc4ccccc14)CCCC3)O2` (stereo not drawn) [Compound 8d, 6-Hydroxy-2,5,7,8-tetramethyl-N-{6-[(1,2,3,4-tetrahydroacridin-9-yl)amino]hexyl}-3,4-dihydro-2H-1-benzopyran-2-carboxamide], the IC50 [1] is reported as 12.7 µM, the “BuChE inhibitor activity, fold higher than tacrine” value [2] is reported as “more than 3 fold” and the “BuChE selectivity index” value [2] is reported as 10.40. It also gave an IC50 [2] of 4.74 nM and an IC50 [3] of 49.3 nM.

In the case of `c1ccc2c(NCCCCCCCN3CCc4c([nH]c5ccccc45)C3)c3c(nc2c1)CCCC3` [Compound 14, N-(7-(3,4-dihydro-1H-pyrido[3,4-b]indol-2(9H)-yl)heptyl)-1,2,3,4-tetrahydroacridin-9-amine], the IC50 [1] is reported as 129 µM, the IC50 [2] is reported as 3.16 nM and the “BuChE selectivity index” value ([2]; ratio of IC50 values) is reported as 5.49. The “BuChE inhibitor activity, fold higher than tacrine” value ([2]; relative to tacrine) was “more than 3 fold”.

For `Cc1c(C)c2c(c(C)c1O)CCC(C)(C(=O)NCCNc1c3c(nc4ccccc14)CCCC3)O2` (stereo not drawn) [Compound 8a, 6-Hydroxy-2,5,7,8-tetramethyl-N-{2-[(1,2,3,4-tetrahydroacridin-9-yl)amino]ethyl}-3,4-dihydro-2H-1-benzopyran-2-carboxamide], the IC50 [1] was 46.2 µM, the “BuChE selectivity index” value [2] was 11.87 and the IC50 [2] was 129 nM. It also gave an IC50 [3] of 1530 nM.
